Assay results taken from ChEMBL document CHEMBL1201862, “PubChem BioAssay data set” (2004).
Where a name gives a salt, the structure may show the parent alone. Activity calls are given as the source filed them. Rule as the data show it, for most assays here: actives have a measured EC50 and inactives only a lower limit.

Assays:
[1] = NIH-3T3 fibroblast cytotoxicity, dose response, cytotoxicity control, cell-based, fluorescence, Alamar Blue, secondary assay (AID 2327); type: functional;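 also: NIH-3T3 mouse fibroblasts cultured with fluconazole at 8 µg/mL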
[2] = C. albicans growth with fluconazole, confirmation, fluorescence, retest (AID 2467); type: functional, cell-based
[3] = molecular target: T1, Heat shock factor protein 1 (Mus musculus, UniProt P38532); assay: inhibition of MG132-induced HSE-luciferase signal, confirmation, cell-based, NIH3T3, luminescence, dose retest (AID 2382); type: functional;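 also: NIH3T3 fibroblasts with HSF1-driven luciferase reporter stressed by proteasome inhibitor MG132; luminescence from HSF1-driven luciferase expression after 8 hours of MG132 stress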
T1 sequence (P38532 whole entry): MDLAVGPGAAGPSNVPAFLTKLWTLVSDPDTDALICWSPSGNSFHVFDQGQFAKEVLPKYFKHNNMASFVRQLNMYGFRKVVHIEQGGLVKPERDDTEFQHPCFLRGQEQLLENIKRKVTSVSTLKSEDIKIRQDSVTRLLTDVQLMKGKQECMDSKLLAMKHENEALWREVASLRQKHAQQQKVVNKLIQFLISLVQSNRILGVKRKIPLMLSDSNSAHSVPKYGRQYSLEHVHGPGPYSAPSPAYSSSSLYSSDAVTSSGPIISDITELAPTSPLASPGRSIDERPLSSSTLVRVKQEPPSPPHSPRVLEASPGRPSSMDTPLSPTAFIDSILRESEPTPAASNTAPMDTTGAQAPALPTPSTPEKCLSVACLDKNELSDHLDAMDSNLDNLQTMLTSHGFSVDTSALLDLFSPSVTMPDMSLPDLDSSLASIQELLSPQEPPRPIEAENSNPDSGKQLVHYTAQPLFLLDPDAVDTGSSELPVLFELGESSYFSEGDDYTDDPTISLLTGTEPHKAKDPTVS

[4] = inhibitors of intracellular T. cruzi replication, confirmation, NIH3T3 host cells, beta-gal luminescence (AID 2044); type: functional, cell-based;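 also: intracellular parasites grown in NIH/3T3 mouse fibroblasts as host cells; luminescent beta-galactosidase reporter signal from transgenic T. cruzi replicating inside host cells; inhibitors lower the luminescence signal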
[5] = cytotoxicity toward NIH3T3 fibroblasts, dose response, counter-screen, cell-based, ATP luminescence, mouse fibroblasts (AID 2010); type: functional;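 also: cells exposed to compound for about 90 hours before reading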
[6] = molecular target: T1, Heat shock factor protein 1; assay: HSF1 potentiators in luciferase reporter cells, confirmation, cell-based, NIH3T3, luminescence, dose retest (AID 435004); type: functional;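 also: stress induced by proteasome inhibitor MG132 added 30 min after compound; luciferase reporter driven by HSF1 response element in NIH3T3 cells; actives raise luminescence as potentiators of the MG132 stress response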
[7] = HEp-2 cell cytotoxicity, dose response, cytotoxicity control for RSV inhibitor project, HTS (AID 2410); type: functional; conditions: human respiratory syncytial virus
[8] = Luminescence Cell-Based Dose Retest to Confirm Inhibitors of Cancer Stem Cells. [Related pubchem assays (depositor defined):AID2717, AID2721]; type: functional; conditions: Homo sapiens
[9] = tested on: Streptococcus sp. 'group A'; assay: growth inhibition of control SK(-) GAS strain, dose response, counter-screen for streptokinase expression inhibitor project, luminescence, kanamycin, BacTiterGlo, confirmation (AID 1900); type: functional, organism-based
Streptococcus = assay: Group A Streptococcus viability loss, dose response, counter-screen for streptokinase expression inhibitor project, luminescence, BacTiterGlo (AID 1915); type: functional, organism-based;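 also: potency for reduction of bacterial viability or growth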
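For AC50 in this document: cells exposed to compound for roughly 70 hours or longer before luminescence read.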

Cc1ccc(NC(=O)NC2CCCCCCC2)c(C)c1
EC50 [1]: 19.6 µM (inconclusive)
EC50 [2]: > 38 µM (not active)

Cc1ccc(C)c(N2CCN(C(=O)c3cc(S(=O)(=O)N4CCCC4)cn3C)CC2)c1
EC50 [3]: > 195 µM (not active)

Cc1ccc(SCCN=C(S)Nc2ccc(C)cc2C)cc1
EC50 [4]: 2.2 µM (active)
EC50 [5]: > 60 µM (not active)

Cc1cccc2cc(CN(Cc3ccco3)C(c3nnnn3CCc3ccccc3)C(C)C)c(O)nc12 (stereo unspecified)
EC50 [6]: 70.3 µM (active)

COc1ccc(S(=O)(=O)NCC(c2cccnc2)N2CCN(Cc3ccccc3)CC2)cc1 (stereo unspecified)
EC50 [4]: 1.58 µM (active)
EC50 [5]: > 60 µM (not active)

CCN(CC)CCOC(=O)c1ccc(N)cc1 [PROCAINE HYDROCHLORIDE]
EC50 [3]: > 195 µM (not active)

O=C(Nc1ccc([N+](=O)[O-])cc1)C1C(c2ccccc2)=C1c1ccccc1
EC50 [6]: > 260 µM (inactive)

COc1cccc(-c2ccc(SCC(=O)c3ccccc3)nn2)c1
CC50 [7]: 35.2 µM (active)

Cc1ccsc1/C=C1\C(=O)NC(=S)N(C)C1=O
EC50 [3]: > 195 µM (not active)

O=C(Nc1ccc(Cl)c([N+](=O)[O-])c1)c1ccc(NCCCN2CCOCC2)c([N+](=O)[O-])c1
EC50 [4]: 0.963 µM (active)
EC50 [5]: > 60 µM (not active)

NS(=O)(=O)c1ccc(CCNCC#Cc2ccccc2)cc1
EC50 [3]: > 195 µM (not active)

C/C(=N\NC(=O)c1nn(C)c(C)c1Br)c1ccc(NC(=O)C2CCCC2)cc1
EC50 [1]: 34.4 µM (active)
EC50 [2]: > 38 µM (not active)

COc1ccc(Nc2nc(-c3ccccc3)nc3ccccc23)cc1
CC50 [7]: 13.1 µM (active)

CCN=C(S)NNC(=O)c1cc(-c2cccc(C)c2)nc2ccccc12
EC50 [1]: 20.2 µM (inconclusive)
EC50 [2]: 2.5 µM (active)

Cc1nc2ccccc2c(N)c1C(=O)/C=C/c1ccccc1
CC50 [7]: 9.1 µM (active)

C=CCOc1c(Cl)cc(CNc2ccc(C)c(Cl)c2)cc1OC
EC50 [4]: 2.75 µM (active)
EC50 [5]: 0.491 µM (active)

NC(=O)c1c(NC(=O)c2ccncc2)sc2c1CCCC2
EC50 [1]: > 150 µM (inactive)
EC50 [2]: 2.12 µM (active)

Cc1cc(C)c2nc(O)c(CN(Cc3cccs3)C(S)=NCc3ccco3)cc2c1
AC50 [8]: 61.4 µM (active)

O=C(NCc1ccccc1)C1CCCN(S(=O)(=O)c2cccc3nsnc23)C1 (stereo unspecified)
EC50 [3]: > 195 µM (not active)

CCC(=O)N1CCN(c2cc(N3CCN(C)CC3)c(F)cc2[N+](=O)[O-])CC1
EC50 [4]: 0.765 µM (active)
EC50 [5]: > 60 µM (not active)

O=C(Nc1ccsc1C(=O)O)c1cccc(Oc2ccccc2)c1
CC50 [7]: 18.3 µM (active)

CCOc1ccccc1CN1CCN(CC2=Cc3cc(OC)ccc3OC2)CC1CCO (stereo unspecified)
EC50 [4]: 1.29 µM (active)
EC50 [5]: > 60 µM (not active)

CCOC(=O)C(O)(c1ccc(NC(=O)c2ccc(Cl)c(Cl)c2)cc1)C(F)(F)F (stereo unspecified)
CC50 [7]: 20.9 µM (active)

CC(=O)Oc1c(Cl)cc(Cl)cc1/C=C/c1ccc2ccccc2n1
AC50 [8]: 1.81 µM (active)

CC(=O)Nc1ccc(S(=O)(=O)NCc2ccc(C(=O)NCc3ccc4c(c3)OCO4)cc2)cc1
EC50 [3]: > 195 µM (not active)

CCOC(=O)c1cnc(SC)nc1Oc1cccc(NS(=O)(=O)c2ccccc2)c1
EC50 [4]: 1.64 µM (active)
EC50 [5]: > 60 µM (not active)

CO/N=C/c1ccc(N2CCN(C(=O)c3ccc(C)cc3)CC2)c([N+](=O)[O-])c1
EC50 [1]: > 160 µM (inactive)
EC50 [2]: > 38 µM (not active)

O=C(c1ccc(C(=O)N2CCN(c3ccccc3F)CC2)nc1)N1CCN(c2ccccc2F)CC1
EC50 [1]: > 160 µM (inactive)
EC50 [2]: > 38 µM (not active)

COc1ccccc1-n1c(O)cc(=O)nc1SCC(=O)Nc1ccc(Br)cc1
EC50 [9]: 6.68 µM (active)
EC50 (Streptococcus): 22.6 µM (active)

COc1ccc(C2NC(S)=NC3=C2CCc2cc(OC)ccc23)cc1 (stereo unspecified)
CC50 [7]: 26.4 µM (active)

COc1ccc(Br)c2oc(SC)cc(=O)c12
CC50 [7]: > 50 µM (active)

O=C(NC(=S)NCCc1ccccc1)C1CCCCC1
AC50 [8]: 10.6 µM (active)

CCN(CC)S(=O)(=O)c1ccc(N2CCN(C)CC2)c(NC(=O)COc2ccc(F)cc2Cl)c1
EC50 [4]: 0.252 µM (active)
EC50 [5]: > 60 µM (not active)

O=C(Nc1ccc(Br)cn1)c1cccc(-c2cc3ccccc3oc2=O)c1
AC50 [8]: 8.81 µM (active)

O=C(O)/C=C\C(=O)Nc1ccc(OCc2ccccc2)cc1
EC50 [3]: 31 µM (active)

CCCCC1SC(N/N=C/c2ccco2)=NC1=O (stereo unspecified)
EC50 [1]: > 150 µM (inactive)
EC50 [2]: 5.08 µM (active)

COc1cc(NS(=O)(=O)c2ccc(NC(=S)NC(=O)/C=C/c3ccc(OC)c(OC)c3)cc2)ncn1
EC50 [3]: > 195 µM (not active)

CC(Oc1ccc(Br)cc1)C(=O)NC1CCN(Cc2ccccc2)CC1 (stereo unspecified)
EC50 [4]: 0.579 µM (active)
EC50 [5]: > 60 µM (not active)

Cc1sc2ncnc(N3CCC(C(=O)Nc4nc(-c5cccs5)cs4)CC3)c2c1C
EC50 [3]: 1.07 µM (active)
EC50 [4]: 1.6 µM (active)
EC50 [5]: > 60 µM (not active)

O=C(NCc1ccccc1)N1CCC(CO)(Cc2cccc(F)c2)CC1
EC50 [3]: > 195 µM (not active)

O=C(Nc1ccc2c(c1)OCO2)c1ccc(COc2ccc3c(c2)CCC3)o1
AC50 [8]: 3.1 µM (active)

COc1ccc(-n2nc(C(=O)NCC(=O)NCc3ccccc3OC)c3ccccc3c2=O)c(OC)c1
EC50 [3]: > 195 µM (not active)

CCN(c1ccccc1)S(=O)(=O)c1cccc(C(=O)NCC(c2cccs2)N2CCOCC2)c1 (stereo unspecified)
AC50 [8]: > 195 µM (inactive)

Cc1nn(-c2ccccc2)c(Cl)c1/C=C1\C(=O)N(C)C(=S)N1C
CC50 [7]: 26.6 µM (active)

Cc1cccc(CN2C(=O)[C@@H]3Cc4c([nH]c5ccccc45)C(C)(C)N3C2=O)c1
AC50 [8]: 11.9 µM (active)

Cc1cc(C)nc(N=C(NCc2ccc3c(c2)OCO3)NC(=O)Nc2ccccc2)n1
EC50 [1]: > 150 µM (inactive)
EC50 [2]: > 38 µM (not active)

O=C(c1ccc([N+](=O)[O-])s1)N1CCN(c2ccccc2)CC1
EC50 [4]: 0.808 µM (active)
EC50 [5]: > 60 µM (not active)

COC(=O)c1cc(=O)n(Cc2cccs2)/c(=N/c2ccc(F)cc2)s1
AC50 [8]: 3.81 µM (active)

N#Cc1c(F)cccc1N1CCOCC1
CC50 [7]: 23.6 µM (active)

O=C(NC1CCCCC1)C1CCN(c2nccs2)CC1
EC50 [3]: > 195 µM (not active)

COc1ccccc1C(=O)Nc1ccccc1N1CCN(C(=O)c2ccc(Cl)cc2)CC1
CC50 [7]: 26.5 µM (active)

COc1cccc(CN(C(=O)Cc2c[nH]c3ccccc23)C(C(=O)NC2CCCCC2)c2cccs2)c1 (stereo unspecified)
EC50 [4]: 1.98 µM (active)
EC50 [5]: > 60 µM (not active)

Cc1ccc(/C=N/NC2=NC(=O)CS2)o1
CC50 [7]: 21.5 µM (active)

Cc1cc(NC(=O)CSc2nnc(C)n2C)no1
EC50 [3]: > 195 µM (not active)

Cc1nn(CC(=O)NCCCc2ccccc2)c(C)c1[N+](=O)[O-]
EC50 [1]: > 150 µM (inactive)

COc1ccc(NC(=O)CN2C(=O)COc3ccc(S(=O)(=O)N4CCOCC4)cc32)c(OC)c1
EC50 [3]: > 195 µM (not active)

Cc1ccc(/C=C/C(=O)NCCc2ccccc2)o1
AC50 [8]: > 195 µM (inactive)

CNC(=O)c1ccc2c(c1)nnn2C
EC50 [1]: 58.7 µM (active)
EC50 [2]: > 38 µM (not active)

COc1cccc(-c2nc(CCl)cs2)c1
EC50 [4]: 3.25 µM (active)
EC50 [5]: > 60 µM (not active)

C[C@@H](O)[C@H]1C(=O)N2C(C(=O)O)=C(S[C@@H]3CN[C@H](C(=O)N(C)C)C3)[C@H](C)[C@H]12 [MEROPENEM]
EC50 [9]: 0.153 µM (active)
EC50 (Streptococcus): 1.15 µM (active)

c1ccc2c(c1)OCC(c1csc3ncnc(N4CCCCC4)c13)O2 (stereo unspecified)
CC50 [7]: 16.8 µM (active)

CNC(=S)N/N=C/c1ccc(-c2ccc(Cl)c([N+](=O)[O-])c2)o1
EC50 [1]: > 150 µM (inconclusive)
EC50 [2]: > 38 µM (not active)

Cc1[nH]n(-c2cccc3ccccc23)c(=O)c1/C=N/NC(=O)c1cccc([N+](=O)[O-])c1
EC50 [1]: 12.1 µM (active)
EC50 [9]: 2.98 µM (active)
EC50 [2]: > 38 µM (not active)
EC50 (Streptococcus): 7.09 µM (active)

CN1CCN(C(=O)CCc2ccc(S(=O)(=O)NC3CCCCC3)cc2)CC1
EC50 [4]: 0.141 µM (active)
EC50 [5]: > 60 µM (not active)

CC(=S)/C=C1\Sc2ccccc2N1C
EC50 [1]: > 150 µM (inactive)
EC50 [2]: 1.9 µM (active)
EC50 [4]: 0.739 µM (active)
EC50 [5]: > 60 µM (not active)

Cc1nnc(-c2cnn(-c3ccccc3)c2N)n1Cc1cccc(C(F)(F)F)c1
EC50 [3]: > 195 µM (not active)

COC(=O)c1c(C)nc(O)nc1SCc1cccc2ccccc12
CC50 [7]: > 50 µM (active)

O=C(Nc1ccc(Cl)cc1)N1CCCN(c2ccc(C(F)(F)F)cc2[N+](=O)[O-])CC1
AC50 [8]: 4.79 µM (active)
